Laboratory results taken from patent publication US12304912B2, “Fused bicyclic RAF inhibitors and methods for use thereof” (Jazz Pharmaceuticals Ireland Limited, priority 2020, dated 2025).

Assays:
[1] = Microsomal stability assay, mouse liver microsomes (MLM); type: in vitro ADME; conditions: 0.5 mg/mL protein, 1 μM substrate
Summary of the method: (§1)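 Half-life and CLint come from the ln(% remaining)–time slope, with remaining compound quantified by LC-MS/MS after ice-cold solvent quench of timed samples. Incubations used 1 μM test compound and 0.5 mg·mL^−1 human or mouse liver microsomal protein at 37° C.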

[2] = tested on: RAF dimers in HCT-116 cells; assay: HCT-116 AlphaLISA SureFire pERK1/2 cellular assay (dimer); type: cell-based; conditions: Homo sapiens, HCT-116; HCT116 cells pre-dosed with 1 μM Encorafenib, 1 hr; read-out: pERK HCT116 dimer (1 hr) pIC50 (converted)
Method: (§2) The human HCT-116 colorectal carcinoma cell line (ATCC CCL-247) endogenously expresses the KRAS^G13D mutation, which leads to constitutive activation of the MAP kinase pathway and phosphorylation of ERK. […] Assay read outs took place 2 or 24 hours after dosing with compounds. On the first day, HCT-116 cells were harvested, resuspended in growth medium (McCoys5A with Glutamax (Life Technologies 36600021) and 10% heat-inactivated fetal bovine serum (Sigma F9665)), and counted. Cells were plated in 100 μl per well in each well of a 96-well culture dish (Sigma CLS3598) to a final density of 30,000 (2 hr read) or 15,000 (24 hr read) cells per well and incubated over night at 37° C. and 5% CO2. On day 2, the growth medium was exchanged for dosing medium (McCoys5A with Glutamax (Life Technologies 36600021) and 1% heat-inactivated fetal bovine serum (Sigma F9665)) and the cells were dosed with compounds to produce a 10-point dose response, where the top concentration was 1 μM and subsequent concentrations were at 1/3 log dilution intervals. A matched DMSO control was included. The cells were subsequently incubated for either 2 or 24 hours at 37° C. and 5% CO2. After incubation, media was removed and the cells were incubated with lysis buffer containing phosphatase inhibitors for 15 minutes at room temperature. Cell lysates were transferred to a 12 area 96 well white Optiplate™ (Perkin Elmer 6005569) and incubated with anti-mouse IgG acceptor beads, a biotinylated anti-ERK1/2 rabbit antibody recognizing both phosphorylated and non-phosphorylated ERK1/2, a mouse antibody targeted to the Thr202/Tyr204 epitope and recognizing phosphorylated ERK proteins only, and streptavidin-coated donor beads. The biotinylated antibody binds to the streptavidin-coated donor beads and the phopsho-ERK1/2 antibody binds to the acceptor beads. Plates were read on an EnVision reader (Perkin Elmer) and excitation of the beads at 680 nm with a laser induced the release of singlet oxygen molecules from the donor beads that trigger energy transfer to the acceptor beads in close proximity, producing a signal that can be measured at […]. Both antibodies bound to phosphorylated ERK proteins, bringing the donor and acceptor beads into close proximity. All data were analyzed using the Dotmatics or GraphPad Prism software packages. Inhibition of ERK phosphorylation was assessed by determination of the absolute IC50 value, which is defined as the concentration of compound required to decrease the level of phosphorylated ERK proteins by 50% when compared to DMSO control.
HCT-116 AlphaLISA SureFire pERK1/2 Cellular Assay (Dimer)
The human HCT-116 colorectal carcinoma cell line (ATCC CCL-247) endogenously expresses the KRAS^G13D mutation, which leads to constitutive activation of the MAP kinase pathway and phosphorylation of ERK. First generation RAF inhibitors can promote RAF dimer formation in KRAS mutant tumours leading to a paradoxical activation of the pathway. To determine whether compounds can circumvent this problem and inhibit RAF dimers in HCT-116 cells, they were tested using AlphaLISA® SureFire® technology (Perkin Elmer p-ERK1/2 p-T202/Y204 assay kit ALSU-PERK-A10K). The main procedure is essentially the same as described above, with the following adjustments: Cells were seeded with the seeding density of 30,000 cells per well. On the second day (the day of dosing) no medium change was performed and the cells were dosed with 1 μM of Encorafenib for 1 hour (at 37° C. and 5% CO2) to induce RAF dimers and promote paradoxical dimer-dependent pERK signalling. After incubation, the cells were washed, 100 μl fresh growth medium was added, and cells were dosed with compounds of interest to produce a 10-point dose response, where the top concentration was 10 μM and subsequent concentrations are at 1/2 log dilution intervals. Cells were incubated for another hour at 37° C. and 5% CO2 before lysis and processing with the pERK AlphaLISA® SureFire® kit as described above. […]

[3] = tested on: BRAF monomers in A375 cells; assay: A375 AlphaLISA SureFire pERK1/2 cellular assay (monomer); type: cell-based; conditions: Homo sapiens, A-375; A375 cells, 1 hr; read-out: pERK A375 (1 hr) pIC50 (converted)
Method: as §2
A375 AlphaLISA SureFire pERK1/2 Cellular Assay (Monomer)
The human A375 melanoma cell line (ATCC CRL-1619) endogenously expresses the BRAF^V600E mutation, which leads to constitutive activation of the MAP kinase pathway and phosphorylation of ERK. In BRAF^V600E mutant tumours, BRAF signals as a monomer to activate ERK. To determine whether compounds can inhibit BRAF monomers in A375 cells, they were tested using AlphaLISA® SureFire® technology (Perkin Elmer p-ERK1/2 p-T202/Y204 assay kit ALSU-PERK-A10K). The main procedure is essentially the same as described above for HCT-116 cells, with the following adjustments: The A375 cells were cultivated and dosed in Dulbecco's modified Eagle's medium containing 4.5 g/L D-glucose (Sigma D6546), 10% heat-inactivated fetal bovine serum (Sigma F9665), and 1% Sodium-Pyruvate (Sigma S8636), and seeded with a seeding density of 30,000 cells per well. No media exchange was performed before dosing with compounds to produce a 10-point dose response, where the top concentration was 10 μM and subsequent concentrations were at 1/2 log dilution intervals. Subsequently, the cells were incubated for 1 hour at 37° C. and 5% CO2 before lysis.

[4] = Microsomal stability assay, human liver microsomes (HLM); type: in vitro ADME; conditions: 0.5 mg/mL protein, 1 μM substrate
Summary of the method: as §1

[5] = Plasma protein binding assay, human plasma (hPPB); type: in vitro ADME; conditions: 5 μM, equilibrium dialysis 4 hours 37° C.
Summary of the method: (§3)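 Equilibrium dialysis of 5 μM compound in previously frozen human or mouse plasma against phosphate buffer, 4 h at 37 °C. Both chambers quantified by LC-MS/MS; % free = (1−((PC−PF)/PC))×100.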

[6] = Plasma protein binding assay, mouse plasma (mPPB); type: in vitro ADME; conditions: 5 μM, equilibrium dialysis 4 hours 37° C.
Summary of the method: as §3

[7] = Solubility (Sol), medium not stated; type: physicochemical; conditions: cells not marked (FESSIF)

SMILES | microsomal CLint at 1 μM [1] [µL/min/mg] | IC50 [2] [nM] | IC50 [3] [nM] | microsomal CLint at 1 μM [4] [µL/min/mg] | hPPB (% free) [5] [% free] | mPPB (% free) [6] [% free] | Sol [7] [mg/L]
O=C1CCc2c(Oc3ccc4c(c3)CC(c3nc(-c5cc(F)ccc5F)c[nH]3)CO4)ccnc2N1 (stereo not drawn) [Compound 5, 5-[3-[4-(2,5-difluorophenyl)-1H-imidazol-2-yl]chroman-6-yl]oxy-3,4-dihydro-1H-1,8-naphthyridin-2-one] | 28.5 | 191 | 186 | 33.9 | 0.3 | 0.4 | <1.2
CC(C)NCc1cc(-c2c[nH]c(C3COc4ccc(Oc5ccnc6c5CCC(=O)N6)cc4C3)n2)cc(C(F)(F)F)c1 (stereo not drawn) [Compound 6, 5-[3-[4-[3-[(isopropylamino)methyl]-5-(trifluoromethyl)phenyl]-1H-imidazol-2-yl]chroman-6-yl]oxy-3,4-dihydro-1H-1,8-naphthyridin-2-one] | 18.1 | 447 | 977 | 33.4 | 2.4 | 1.3 | <1.4
CN(C)Cc1cc(-c2c[nH]c(C3COc4ccc(Oc5ccnc6c5CCC(=O)N6)cc4C3)n2)cc(C(F)(F)F)c1 (stereo not drawn) [Compound 7, 5-[3-[4-[3-[(dimethylamino)methyl]-5-(trifluoromethyl)phenyl]-1H-imidazol-2-yl]chroman-6-yl]oxy-3,4-dihydro-1H-1,8-naphthyridin-2-one] | 39.2 | 191 | 692 | 67.9 | 1.9 | 0.9 | <1.4
Cc1ccc(-c2c[nH]c(C3COc4ccc(Oc5ccnc6c5CCC(=O)N6)cc4C3)n2)cc1 (stereo not drawn) [Compound 9, 5-[3-[4-(p-tolyl)-1H-imidazol-2-yl]chroman-6-yl]oxy-3,4-dihydro-1H-1,8-naphthyridin-2-one] | 6.1 | 186 | 331 | 70.5 | 0.6 | 0.4 | <1.1
COc1ccc(-c2c[nH]c(C3COc4ccc(Oc5ccnc6c5CCC(=O)N6)cc4C3)n2)cc1 (stereo not drawn) [Compound 10, 5-[3-[4-(4-methoxyphenyl)-1H-imidazol-2-yl]chroman-6-yl]oxy-3,4-dihydro-1H-1,8-naphthyridin-2-one] | 45.9 | 282 | 832 | 89.1 | 0.6 | 0.7 | <1.2
O=C1CCc2c(Oc3ccc4c(c3)CC(c3nc(-c5ccc(Cl)cc5)c[nH]3)CO4)ccnc2N1 (stereo not drawn) [Compound 11, 5-[3-[4-(4-chlorophenyl)-1H-imidazol-2-yl]chroman-6-yl]oxy-3,4-dihydro-1H-1,8-naphthyridin-2-one] | 29.1 | 214 | 257 | 10.3 | 0.5 | 0.1 | <1.2
COc1cccc(-c2c[nH]c(C3COc4ccc(Oc5ccnc6c5CCC(=O)N6)cc4C3)n2)c1 (stereo not drawn) [Compound 13, 5-[3-[4-(3-methoxyphenyl)-1H-imidazol-2-yl]chroman-6-yl]oxy-3,4-dihydro-1H-1,8-naphthyridin-2-one] | 114 | 123 | 35.5 | 77.1 | 0.7 | 1.2 | <1.2
Cc1cccc(-c2c[nH]c(C3COc4ccc(Oc5ccnc6c5CCC(=O)N6)cc4C3)n2)c1 (stereo not drawn) [Compound 14, 5-[3-[4-(m-tolyl)-1H-imidazol-2-yl]chroman-6-yl]oxy-3,4-dihydro-1H-1,8-naphthyridin-2-one] | 51.3 | 75.9 | 18.2 | 60.7 | 0.1 | 0.5 | <1.1
O=C1CCc2c(Oc3ccc4c(c3)CC(c3nc(-c5cccc(F)c5)c[nH]3)CO4)ccnc2N1 (stereo not drawn) [Compound 15, 5-[3-[4-(3-fluorophenyl)-1H-imidazol-2-yl]chroman-6-yl]oxy-3,4-dihydro-1H-1,8-naphthyridin-2-one] | 33.9 | 67.6 | 24 | 39.9 | 0.2 | 1.3 | <1.1
COc1cncc(-c2c[nH]c(C3COc4ccc(Oc5ccnc6c5CCC(=O)N6)cc4C3)n2)c1 (stereo not drawn) [Compound 17, 5-[3-[4-(5-methoxy-3-pyridyl)-1H-imidazol-2-yl]chroman-6-yl]oxy-3,4-dihydro-1H-1,8-naphthyridin-2-one] | 16.5 | 347 | 933 | 31.5 | 0.7 | 2.4 | <1.2
O=C1CCc2c(Oc3ccc4c(c3)CC(c3nc(-c5ccc(C(F)(F)F)cc5)c[nH]3)CO4)ccnc2N1 (stereo not drawn) [Compound 20, 5-[3-[4-[4-(trifluoromethyl)phenyl]-1H-imidazol-2-yl]chroman-6-yl]oxy-3,4-dihydro-1H-1,8-naphthyridin-2-one] | 3 | 603 | 741 | 16.9 | 0.1 | 0.1 | <1.3
N#Cc1ccc(-c2c[nH]c(C3COc4ccc(Oc5ccnc6c5CCC(=O)N6)cc4C3)n2)cc1 (stereo not drawn) [Compound 21] | 23.2 | 275 | 933 | 15.6 | 0.7 | 1.6 | <1.2
